This note sets out measurements from patent US11278530B2, “Polycyclic amides as muscarinic M1 receptor positive allosteric modulators” (SUVEN LIFE SCIENCES LIMITED, priority 2017, dated 2022).

This test has as its target T1, recombinant human Muscarinic M1 receptor (Homo sapiens, UniProt P11229).
T1 sequence (P11229 1-460): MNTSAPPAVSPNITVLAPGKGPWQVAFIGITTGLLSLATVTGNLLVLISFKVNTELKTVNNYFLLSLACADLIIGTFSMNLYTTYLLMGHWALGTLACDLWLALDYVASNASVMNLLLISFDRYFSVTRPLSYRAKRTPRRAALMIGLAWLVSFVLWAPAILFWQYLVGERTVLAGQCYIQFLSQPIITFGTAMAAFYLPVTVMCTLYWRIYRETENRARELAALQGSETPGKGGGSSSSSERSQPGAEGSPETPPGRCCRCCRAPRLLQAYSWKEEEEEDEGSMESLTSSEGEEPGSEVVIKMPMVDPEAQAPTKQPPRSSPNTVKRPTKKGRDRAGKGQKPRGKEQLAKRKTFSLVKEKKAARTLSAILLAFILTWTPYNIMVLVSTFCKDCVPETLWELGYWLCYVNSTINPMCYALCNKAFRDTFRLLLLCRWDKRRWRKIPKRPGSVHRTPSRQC
Put plainly: Allosteric potency EC50 for Muscarinic M1 receptor, CHO pCRE-Luc reporter cell-based assay with EC20 of acetylcholine. As to conditions: CHO cells, human M1, luciferase reporter, in presence of EC20 of acetylcholine, 4 h. Here is the method: Determination of allosteric potency EC50 values for Muscarinic M1 receptor:
A stable CHO cell line expressing recombinant human Muscarinic M1 receptor and pCRE-Luc reporter system was used for cell-based assay. The assay offers a non-radioactive based approach to determine binding of a compound to GPCRs. In this specific assay, the level of intracellular cyclic AMP which is modulated by activation or inhibition of the receptor is measured. The recombinant cells harbor luciferase reporter gene under the control of cAMP response element.
The above cells were grown in 96 well clear bottom white plates in Hams F12 medium containing 10% fetal bovine serum (FBS). Prior to the addition of compounds or standard agonist, cells were serum starved overnight. Increasing concentrations of test compounds were added along with EC20 of acetylcholine in OptiMEM medium to the cells. The incubation was continued at 37° C. in CO2 incubator for 4 h. Medium was removed and cells were washed with phosphate buffered saline. The cells were lysed and luciferase activity was measured in a Luminometer. Luminescence counts in each concentrations of test item were normalized to the acetylcholine induced maximum response and the data was analyzed using Graphpad software. EC50 values of the compounds were defined as the concentration required in stimulating the luciferase activity by 50% in presence of EC20 of acetylcholine.
On the technique in general: A reporter such as luciferase makes a cellular process visible.
The term EC50 denotes the concentration at which the effect is half-maximal. As to `O=C(N[C@H]1CCCC[C@@H]1O)c1cc(Cc2ccc(-c3cscn3)cc2)cn2ccnc12` [Example 23, N-(cis-1S,2S-2-Hydroxycyclohexyl)-6-(4-thiazol-4-yl-benzyl)-imidazo[1,2-a]pyridine-8-carboxamide], the concentration for a half-maximal effect (EC50) came to 308 nM.

As for `Cc1c(Cc2ccc(-c3cnn(C)c3)cc2)cc(C(=O)N[C@H]2CCCC[C@@H]2O)c2nccn12` [Example 18, N-(cis-1S,2S-2-Hydroxycyclohexyl)-5-methyl-6-[4-(1-methyl-1H-pyrazol-4-yl)-benzyl]-imidazo[1,2-a]pyridine-8-carboxamide], the half-maximal effective concentration (EC50) worked out at 248 nM.

For the compound `Cc1cc2c(C)c(Cc3ccc(-c4cnn(C)c4)cc3)cc(C(=O)N[C@H]3CCCC[C@@H]3O)c2o1` [Example 46, N-(cis-1S,2S-2-Hydroxycyclohexyl)-2,4-dimethyl-5-[4-(1-methyl-1H-pyrazol-4-yl)-benzyl]-benzofuran-7-carboxamide], the EC50 was 299 nM.

Take `Cc1c(Cc2cccnc2Cl)cc(C(=O)N[C@@H]2CCCC[C@H]2O)c2nc[nH]c12` [Example 31, N-(cis-1S,2S-2-Hydroxycyclohexyl)-7-methyl-6-[2-chloropyridin-3-ylmethyl]-1H-benzimidazole-4-carboxamide]: the EC50 is 2820 nM.

For `Cc1c(Cc2ccc(Cl)nc2)cc(C(=O)NC2CCOC[C@@H]2O)c2ncccc12` (stereo partly drawn) [Example 3, N-(cis-3S,4S-3-Hydroxytetrahydropyran-4-yl)-6-(2-chloropyridin-5-ylmethyl)-5-methylquinoline-8-carboxamide], the EC50 amounted to 1240 nM.

Turning to `Cn1cc(-c2ccc(Cc3cc(C(=O)N[C@H]4CCCC[C@@H]4O)c4[nH]cnc4c3)c(F)c2F)cn1` [Example 37, N-(cis-1S,2S-2-Hydroxycyclohexyl)-6-[2,3-difluoro-4-(1-methyl-1H-pyrazol-4-yl)-benzyl]-1H-benzimidazole-4-carboxamide], the concentration giving a half-maximal response (EC50) amounted to 597 nM.

Consider `Cc1c(Cc2ccc(-c3cnn(C)c3)c(F)c2)cc(C(=O)N[C@H]2CCCC[C@@H]2O)c2ncccc12` [Example 9, N-(cis-1S,2S-2-Hydroxycyclohexyl)-6-[3-fluoro-4-(1-methyl-1H-pyrazol-4-yl)-benzyl]-5-methylquinoline-8-carboxamide], for which the half-maximal effective concentration (EC50) is 185 nM.

For the compound `Cn1cc(-c2ccc(Cc3cc(C(=O)N[C@H]4CCCC[C@@H]4O)c4nccn4c3)c(F)c2)cn1` [Example 26, N-(cis-1S,2S-2-Hydroxycyclohexyl)-6-[2-fluoro-4-(1-methyl-1H-pyrazol-4-yl)-benzyl]-imidazo[1,2-a]pyridine-8-carboxamide], the EC50 was determined as 3340 nM.

On to `Cc1c(Cc2ccc(-c3cscn3)cc2)cc(C(=O)N[C@@H]2CCCC[C@H]2O)c2nc[nH]c12` [Example 32, N-(cis-1S,2S-2-Hydroxycyclohexyl)-7-methyl-6-[4-(thiazol-4-yl)-benzyl]-1H-benzimidazole-4-carboxamide], for which the EC50 came out at 516 nM.

As for `Cc1c(Cc2ccc(-c3cscn3)cc2)cc(C(=O)N[C@H]2CCOC[C@@H]2O)c2ncccc12` [Example 13, N-(cis-3S,4S-3-Hydroxytetrahydropyran-4-yl)-6-(4-thiazol-4-yl-benzyl)-5-methylquinoline-8-carboxamide], the EC50 was determined as 249 nM.

As to `Cc1c(Cc2ccc(-c3cnn(C)c3)cc2)cc(C(=O)N[C@@H]2CCCC[C@H]2O)c2c1ncn2C` [Example 42, N-(cis-1S,2S-2-Hydroxycyclohexyl)-3,7-dimethyl-6-[4-(1-methyl-1H-pyrazol-4-yl)-benzyl]-3H-benzimidazole-4-carboxamide], the EC50 is 10000 nM.

With `Cc1c(Cc2ccc(-c3cscn3)cc2)cc(C(=O)N[C@H]2CCCC[C@@H]2O)c2ncccc12` [Example 12, N-(cis-1S,2S-2-Hydroxycyclohexyl)-6-(4-thiazol-4-yl-benzyl)-5-methylquinoline-8-carboxamide], the concentration for a half-maximal effect (EC50) came out at 258 nM.

Regarding `Cn1cc(-c2ccc(Cc3cc(C(=O)N[C@@H]4CCCC[C@H]4O)c4nc[nH]c4c3)cc2)cn1` [Example 29, N-(cis-1S,2S-2-Hydroxycyclohexyl)-6-[4-(1-methyl-1H-pyrazol-4-yl)-benzyl]-1H-benzimidazole-4-carboxamide], the half-maximal effective concentration (EC50) came to 449 nM.

For the compound `Cc1c(Cc2ccc(-c3cnn(C)c3)cc2)cc(C(=O)N[C@H]2CCCC[C@@H]2O)c2c1NCCO2` [Example 16, N-(cis-1S,2S-2-Hydroxycyclohexyl)-6-[4-(1-methyl-1H-pyrazol-4-yl)-benzyl]-5-methyl-3,4-dihydro-2H-benzo[1,4]oxazine-8-carboxamide], the EC50 stood at 798 nM.

Turning to `Cc1c(Cc2ccc(F)c(F)c2)cc(C(=O)N[C@@H]2CCCC[C@H]2O)c2nc[nH]c12` [Example 34, N-(cis-1S,2S-2-Hydroxycyclohexyl)-7-methyl-6-[3,4-difluorobenzyl]-1H-benzimidazole-4-carboxamide], the EC50 turned out to be 2280 nM.

Regarding `Cc1c(Cc2ccc(-c3cnn(C)c3)c(F)c2F)cc(C(=O)N[C@@H]2CCCC[C@H]2O)c2c1ncn2C` [Example 43, N-(cis-1S,2S-2-Hydroxycyclohexyl)-3,7-dimethyl-6-[2,3-difluoro-4-(1-methyl-1H-pyrazol-4-yl)-benzyl]-3H-benzimidazole-4-carboxamide], the EC50 amounted to 1460 nM.

In the case of `Cc1c(Cc2ccc(-c3cnn(C)c3)cc2F)cc(C(=O)N[C@H]2CCCC[C@@H]2O)c2nccn12` [Example 20, N-(cis-1S,2S-2-Hydroxycyclohexyl)-5-methyl-6-[2-fluoro-4-(1-methyl-1H-pyrazol-4-yl)-benzyl]-imidazo[1,2-a]pyridine-8-carboxamide], the EC50 was found to be 28 nM.

For `Cc1c(Cc2ccc(-c3cnn(C)c3)nc2)cc(C(=O)N[C@@H]2CCCC[C@H]2O)c2c1ncn2C` [Example 44, N-(cis-1S,2S-2-Hydroxycyclohexyl)-3,7-dimethyl-6-[6-(1-methyl-1H-pyrazol-4-yl)-pyridin-3-ylmethyl]-3H-benzimidazole-4-carboxamide], the EC50 is 208 nM.

For the compound `Cc1c(Cc2ccc(-c3cnn(C)c3)c(F)c2F)cc(C(=O)N[C@H]2CCCC[C@@H]2O)c2[nH]cnc12` [Example 36, N-(cis-1S,2S-2-Hydroxycyclohexyl)-7-methyl-6-[2,3-difluoro-4-(1-methyl-1H-pyrazol-4-yl)-benzyl]-1H-benzimidazole-4-carboxamide], the EC50 came to 465 nM.

Regarding `Cc1c(Cc2ccc(-c3cnn(C)c3)cc2F)cc(C(=O)N[C@@H]2CCCC[C@H]2O)c2nc[nH]c12` [Example 30, N-(cis-1S,2S-2-Hydroxycyclohexyl)-7-methyl-6-[2-fluoro-4-(1-methyl-1H-pyrazol-4-yl)-benzyl]-1H-benzimidazole-4-carboxamide], the concentration for a half-maximal effect (EC50) came to 151 nM.

Regarding `Cc1c(Cc2ccc(-n3cccn3)cc2)cc(C(=O)N[C@H]2CCCC[C@@H]2O)c2ncccc12` [Example 10, N-(cis-1S,2S-2-Hydroxycyclohexyl)-6-(4-pyrazol-1-yl-benzyl)-5-methylquinoline-8-carboxamide], the EC50 was 157 nM.

Consider `Cc1c(Cc2cccc(F)c2F)cc(C(=O)N[C@@H]2CCCC[C@H]2O)c2nc[nH]c12` [Example 33, N-(cis-1S,2S-2-Hydroxycyclohexyl)-7-methyl-6-[2,3-difluorobenzyl]-1H-benzimidazole-4-carboxamide], for which the EC50 was 3660 nM.

For `Cc1c(Cc2ccc(-n3cccn3)cc2)cc(C(=O)N[C@H]2CCCC[C@@H]2O)c2nccn12` [Example 19, N-(cis-1S,2S-2-Hydroxycyclohexyl)-5-methyl-6-(4-pyrazol-1-yl-benzyl)-imidazo[1,2-a]pyridine-8-carboxamide], the half-maximal effective concentration (EC50) is 178 nM.

As to `O=C(N[C@H]1CCCC[C@@H]1O)c1cc(Cc2ccc(-c3ccccc3)cc2)cn2ccnc12` [Example 24, N-(cis-1S,2S-2-Hydroxycyclohexyl)-6-(4-phenyl-benzyl)-imidazo[1,2-a]pyridine-8-carboxamide], the EC50 came out at 3910 nM.

Regarding `Cc1c(Cc2ccc(-c3cscn3)cc2)cc(C(=O)N[C@@H]2CCCC[C@H]2O)c2c1ncn2C` [Example 45, N-(cis-1S,2S-2-Hydroxycyclohexyl)-3,7-dimethyl-6-[4-(thiazol-4-yl)-benzyl]-3H-benzimidazole-4-carboxamide], the EC50 came out at 10000 nM.

Regarding `Cn1cc(-c2ccc(Cc3cc(C(=O)N[C@H]4CCCC[C@@H]4O)c4nccn4c3)cc2)cn1` [Example 25, N-(cis-1S,2S-2-Hydroxycyclohexyl)-6-[4-(1-methyl-1H-pyrazol-4-yl)-benzyl]-imidazo[1,2-a]pyridine-8-carboxamide], the half-maximal effective concentration (EC50) is 444 nM.

For the compound `Cc1c(Cc2ccc(-c3cnn(C)c3)cc2F)cc(C(=O)N[C@@H]2CCCC[C@H]2O)c2c1ncn2C` [Example 41, N-(cis-1S,2S-2-Hydroxycyclohexyl)-3,7-dimethyl-6-[2-fluoro-4-(1-methyl-1H-pyrazol-4-yl)-benzyl]-3H-benzimidazole-4-carboxamide], the EC50 was determined as 1060 nM.
